In paper PMC6050298, “Highly active enzymes by automated combinatorial backbone assembly and sequence design” (Nature Communications, 2018) one finds Km and kcat/KM data, which are given here for two molecules.

Assay [1] has as its system T1, xyl3.2.
T1 construct: computational design (112 mutations to nearest natural protein), N-terminal His6-MBP fusion kept
The assay is described as follows: 4-nitrophenol release, […] nm, Michaelis-Menten fit. The assay is classed as biochemical, synthetic construct. To be noted: 37 °C, 50 mM Tris pH 6.5, 150 mM NaCl; MBP fusion.

Assay [2] addresses T2, GH10 from S. lividans (PDB ID 1E0V) (Streptomyces lividans, UniProt P26514).
T2 construct: gene xlnA; synthetic codon-optimised gene, N-terminal His6-MBP fusion kept in assay, E. coli BL21 DE3; probably catalytic domain as in 1E0V
The assay is described as follows: 4-nitrophenol release, […] nm. The assay is classed as biochemical. The note with it: 37 °C, 50 mM Tris pH 6.5, 150 mM NaCl; MBP fusion.

The subject of assay [3] is T3, pll4.1.
T3 construct: computational design (85 mutations to nearest natural protein), N-terminal His6-MBP fusion kept
The assay is classed as biochemical, synthetic construct.

The test system of assay [4] is T4, pll2.4.
T4 construct: computational design (60 mutations to nearest natural protein), N-terminal His6-MBP fusion kept
The class given is biochemical, synthetic construct.

Assay [5] concerns T5, pll2.2.
T5 construct: computational design (54 mutations to nearest natural protein), N-terminal His6-MBP fusion kept
The assay is classed as biochemical, synthetic construct.

T2 sequence (P26514 42-354): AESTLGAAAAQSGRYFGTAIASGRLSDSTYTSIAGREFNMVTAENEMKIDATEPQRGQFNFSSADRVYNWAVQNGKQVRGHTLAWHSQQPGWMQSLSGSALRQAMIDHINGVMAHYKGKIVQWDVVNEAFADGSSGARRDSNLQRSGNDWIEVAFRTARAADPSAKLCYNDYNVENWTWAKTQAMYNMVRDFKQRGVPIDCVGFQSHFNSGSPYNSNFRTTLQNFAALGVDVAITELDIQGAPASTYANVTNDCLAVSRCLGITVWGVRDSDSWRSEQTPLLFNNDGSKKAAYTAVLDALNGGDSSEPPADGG

Consider `O=[N+]([O-])c1ccc(O[C@@H]2OC[C@@H](O[C@@H]3OC[C@@H](O)[C@H](O)[C@H]3O)[C@H](O)[C@H]2O)cc1` [4-nitrophenyl β-xylobioside], for which the Km in assay [1] was found to be 160 ± 20 µM. For the same molecule, the kcat/KM entry in assay [2] is on record as “Catalytic efficiency of GH10 designs with OPNPX2 compared to natural GH10 enzymes”.

Consider `CCCCSC1CCC(=O)O1` (centres unmarked) [5-thiobutyl butyrolactone], for which the Km in assay [3] was determined as 350 µM; in assay [4], 82 µM; in assay [5], 180 µM.

What is called Km is the concentration of substrate that gives half-maximal velocity.
